Measurements as given in article PMC11786100, “Chronic GIPR agonism results in pancreatic islet GIPR functional desensitisation” (Molecular Metabolism, 2025).

Tests used:
SNAP-tagged human GIPR = target: T1, SNAP-tagged human GIPR (Homo sapiens, UniProt P48546); assay: Internalisation and receptor surface expression assays in AD-293 cells; assay type: cell-based; details: 1 μM
T1 construct: host or cells: AD-293
T1 sequence (P48546 22-466): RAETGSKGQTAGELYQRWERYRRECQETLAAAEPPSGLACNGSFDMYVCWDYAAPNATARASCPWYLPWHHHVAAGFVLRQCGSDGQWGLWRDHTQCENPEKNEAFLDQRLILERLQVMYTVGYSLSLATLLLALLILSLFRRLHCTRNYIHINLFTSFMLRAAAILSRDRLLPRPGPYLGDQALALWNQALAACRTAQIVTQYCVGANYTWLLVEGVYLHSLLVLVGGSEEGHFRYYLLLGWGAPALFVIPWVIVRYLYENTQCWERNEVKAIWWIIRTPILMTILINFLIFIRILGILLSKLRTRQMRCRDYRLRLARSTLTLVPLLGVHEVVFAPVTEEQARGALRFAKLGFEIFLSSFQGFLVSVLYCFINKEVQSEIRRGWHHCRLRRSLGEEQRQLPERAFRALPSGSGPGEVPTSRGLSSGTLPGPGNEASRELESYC

SNAP-tagged mouse GLP-1R = target: T2, SNAP-tagged mouse GLP-1R (Mus musculus, UniProt O35659); assay: as above; assay type: cell-based; details: 10 nM
T2 construct: host or cells: AD-293
T2 sequence (O35659 22-463): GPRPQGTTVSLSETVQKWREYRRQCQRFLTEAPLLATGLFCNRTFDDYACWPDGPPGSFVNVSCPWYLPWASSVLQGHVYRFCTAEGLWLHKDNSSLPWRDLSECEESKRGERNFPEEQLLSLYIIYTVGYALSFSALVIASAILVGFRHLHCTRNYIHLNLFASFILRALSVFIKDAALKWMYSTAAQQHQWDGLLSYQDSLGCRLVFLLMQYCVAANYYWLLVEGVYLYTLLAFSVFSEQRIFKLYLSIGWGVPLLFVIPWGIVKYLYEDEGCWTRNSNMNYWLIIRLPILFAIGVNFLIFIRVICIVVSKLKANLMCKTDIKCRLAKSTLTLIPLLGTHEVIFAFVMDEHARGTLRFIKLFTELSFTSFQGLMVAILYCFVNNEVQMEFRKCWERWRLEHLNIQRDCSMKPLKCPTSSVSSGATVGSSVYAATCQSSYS
Description: AD-293 cells were transfected with desired plasmid DNA encoding a SNAP-tagged G-protein coupled receptor (GPCR) 24 h prior to assay. For 1 h internalisation assays, cells were labelled for 10 min with cleavable SNAP-tag probe BG-S-S-649 (New England BioLabs, US). Following 1 h treatment with specified peptide, cells were imaged at baseline and after addition of 2-mercaptoethane sulfonate (Mesna). For 4-hour GPCR surface expression assays, cells were treated with the specified peptide for 4 h, prior to 10-minute labelling with BG-S-S-649 and imaging. Full details are provided in the supplementary methods.
AD-293 cells were added to a 96-well plate and maintained in 200 μl complete DMEM. 150 ng of mouse or human SNAP-tagged plasmid GIPR DNA, or 100 ng of mouse or human SNAP-tagged plasmid GLP-1R DNA was added to each well alongside Lipofectamine 2000 (Thermo Fisher, UK) and left for 24 hours.
For 1 hour internalisation assays, cells were labelled with cleavable SNAP-tag probe BG-S-S-649 (New England BioLabs, US) in complete DMEM for 10 minutes prior to washing and 1 hour treatment with specified peptide, reconstituted in DMEM + 0.1% BSA. […] GPCR internalisation was quantified as the cell fluorescence following Mesna addition (representing internalised GPCR), corrected for the baseline cell fluorescence (representing total cellular GPCR). […]

Compound	receptor internalisation compared to vehicle (SNAP-tagged human GIPR; 1-hour treatment, BG-S-S-649/Mesna, n = 3–4)	residual receptor detectable at the cell surface (SNAP-tagged human GIPR; 4 h treatment, post-stimulation labelling, n = 7–8)	receptor internalisation compared to vehicle (SNAP-tagged mouse GLP-1R; 1-hour treatment, n = 3–4)	receptor internalisation (surface expression) compared to vehicle (SNAP-tagged mouse GLP-1R; 4-hours treatment, n = 7–8)
CC[C@H](C)[C@H](NC(=O)[C@H](CO)NC(=O)[C@H](Cc1ccc(O)cc1)NC(=O)[C@H](CC(=O)O)NC(=O)[C@H](CO)NC(=O)[C@@H](NC(=O)[C@H](Cc1ccccc1)NC(=O)[C@@H](NC(=O)CNC(=O)[C@H](CCC(=O)O)NC(=O)C(C)(C)NC(=O)[C@@H](N)Cc1ccc(O)cc1)[C@@H](C)O)[C@@H](C)CC)C(=O)N[C@@H](C)C(=O)N[C@@H](CC(C)C)C(=O)N[C@@H](CC(=O)O)C(=O)N[C@@H](CCCCN)C(=O)N[C@H](C(=O)N[C@@H](Cc1c[nH]cn1)C(=O)N[C@@H](CCC(N)=O)C(=O)N[C@@H](CCC(N)=O)C(=O)N[C@@H](CC(=O)O)C(=O)N[C@@H](Cc1ccccc1)C(=O)N[C@H](C(=O)N[C@@H](CC(N)=O)C(=O)N[C@@H](Cc1c[nH]c2ccccc12)C(=O)N[C@@H](CC(C)C)C(=O)N[C@@H](CC(C)C)C(=O)N[C@@H](C)C(=O)N[C@@H](CCC(N)=O)C(=O)N[C@@H](CCCCN)C(=O)NCC(=O)N[C@@H](CCCCNC(=O)CC[C@H](NC(=O)CCCCCCCCCCCCCCCCCCC(=O)O)C(=O)O)C(=O)N[C@@H](CCCCN)C(=O)N[C@@H](CC(N)=O)C(=O)N[C@@H](CC(=O)O)C(=O)N[C@@H](Cc1c[nH]c2ccccc12)C(=O)N[C@@H](CCCCN)C(=O)N[C@@H](Cc1c[nH]cn1)C(=O)N[C@@H](CC(N)=O)C(=O)N[C@H](C(=O)N[C@H](C(=O)N[C@@H](CCC(N)=O)C(=O)O)[C@@H](C)O)[C@@H](C)CC)C(C)C)[C@@H](C)CC [GIP108]	increased human GIPR internalisation	reduction in residual human GIPR	–	–
GLP-1(7–36)·NH2	–	–	significantly increased both mouse and human GLP-1R internalisation	significantly increased both mouse and human GLP-1R internalisation
